In US20240408216A1, “PROTEIN INHIBITOR OR DEGRADING AGENT, PHARMACEUTICAL COMPOSITION CONTAINING SAME AND PHARMACEUTICAL USE” (JING MEDICINE TECHNOLOGY (SHANGHAI) LTD., priority 2021, published 2024):
Where two headings read alike, the source gives them in different places.

Experiments:
[1] = test system: A431; test: Cell proliferation IC50 assay (Cell Titer GLO), A431 cells; assay type: cell-based; settings: Homo sapiens, A-431, A431, 72 h, read-out: A431 IC50
In short: (§1)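 Growth inhibition is measured over 72 h of continuous compound treatment in cells seeded at 2000-4000 per well.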

[2] = test system: BaF3 (EGFR Del19/T790M/C797S); test: Cell proliferation IC50 assay (Cell Titer GLO), BaF3 DTC cells; assay type: cell-based; settings: Mus musculus, Ba/F3 EGFR-Del19/T790M/C797S
Experimental: (§2) IC50 of compounds in the present invention was determined by Cell Titer GLO reagent from Promega. The procedures are as follows:
(§3) Tumor cells were cultured in specified medium in an incubator at 37° C. and 5% CO2. The cells were passaged periodically. Cells at the logarithmic growth phase were collected for plating at a density of 2000-4000 cells/well. The next day, the compounds of the present invention were serially diluted and added to the cells, with DMSO being the negative control and the culture media without cells being the blank control. The plate was incubated in the incubator for 72 h. The cell viability assay was performed by adding the detection reagents to the cell culture media according to Cell Titer GLO reagent instructions and detecting luminescent signals on an EnVision microplate reader (PerkinElmer).
(§4) Inhibition of cell growth by the compounds of the present invention was plotted by Prism Graphpad software for statistically calculating the IC50 of the compound of the present invention.

[3] = test system: BaF3 (EGFR WT); test: Cell proliferation IC50 assay (Cell Titer GLO), BaF3 WT cells; assay type: cell-based; settings: Mus musculus, Ba/F3 EGFR, 72 h
In short: as §1

[4] = test system: BaF3 (EGFR L858R/T790M/C797S); test: Cell proliferation IC50 assay (Cell Titer GLO), BaF3 LTC cells; assay type: cell-based; settings: Mus musculus, Ba/F3 EGFR
In short: as §1

[5] = test system: BaF3 patent; test: Cell proliferation IC50 assay (Cell Titer GLO), BaF3 parental cells; assay type: cell-based; settings: Mus musculus
Experimental: as §2, §3, §4

[6] = biological target: T1, BaF3 (EGFR Del19/C797S) (Homo sapiens, UniProt P00533, C797S, cells depend on it, form not given); test: Cell proliferation IC50 assay (Cell Titer GLO), BaF3 DC cells; assay type: cell-based, mouse; settings: Table 6, 72 h
T1 construct: BaF3 (EGFR Del19/C797S)|DC|RPMI1640 + 10% FBS
T1 sequence (P00533 with tags, fused parts or gaps DEL746-750/C797S, form open): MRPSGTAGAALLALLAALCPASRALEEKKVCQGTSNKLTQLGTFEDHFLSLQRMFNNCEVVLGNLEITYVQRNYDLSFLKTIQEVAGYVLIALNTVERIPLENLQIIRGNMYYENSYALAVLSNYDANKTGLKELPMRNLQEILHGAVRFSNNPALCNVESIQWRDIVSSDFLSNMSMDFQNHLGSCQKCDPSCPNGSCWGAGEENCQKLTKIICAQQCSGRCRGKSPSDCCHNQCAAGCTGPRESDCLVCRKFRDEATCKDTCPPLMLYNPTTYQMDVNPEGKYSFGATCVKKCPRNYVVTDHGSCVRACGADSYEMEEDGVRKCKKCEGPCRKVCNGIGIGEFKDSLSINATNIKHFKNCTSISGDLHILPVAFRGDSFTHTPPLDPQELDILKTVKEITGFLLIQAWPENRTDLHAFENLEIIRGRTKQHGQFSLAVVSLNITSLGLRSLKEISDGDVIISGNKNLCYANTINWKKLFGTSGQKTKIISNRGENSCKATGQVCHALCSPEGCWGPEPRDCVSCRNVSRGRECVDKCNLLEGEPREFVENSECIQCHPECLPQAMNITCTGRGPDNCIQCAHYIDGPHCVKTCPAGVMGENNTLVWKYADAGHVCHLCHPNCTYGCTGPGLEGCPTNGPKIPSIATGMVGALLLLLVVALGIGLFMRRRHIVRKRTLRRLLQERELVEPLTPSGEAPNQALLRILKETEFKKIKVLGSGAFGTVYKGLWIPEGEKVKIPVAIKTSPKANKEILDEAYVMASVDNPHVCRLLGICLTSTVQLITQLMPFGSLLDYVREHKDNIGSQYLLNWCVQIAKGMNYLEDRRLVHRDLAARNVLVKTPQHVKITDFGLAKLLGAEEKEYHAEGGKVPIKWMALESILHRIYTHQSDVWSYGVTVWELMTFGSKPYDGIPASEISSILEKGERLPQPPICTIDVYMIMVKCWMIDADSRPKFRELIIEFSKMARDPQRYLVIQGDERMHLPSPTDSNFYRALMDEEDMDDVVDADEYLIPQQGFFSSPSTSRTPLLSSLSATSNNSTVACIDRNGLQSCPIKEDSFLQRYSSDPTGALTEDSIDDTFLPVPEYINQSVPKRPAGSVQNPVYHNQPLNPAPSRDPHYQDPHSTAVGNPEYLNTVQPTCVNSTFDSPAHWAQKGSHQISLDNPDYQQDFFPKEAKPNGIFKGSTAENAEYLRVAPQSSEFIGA
In short: as §1

Structure (SMILES)	IC50 ([1]; Table 5) [µM]	IC50 ([2]; Table 5, 72 h) [µM]	IC50 ([3]; Table 5, 10 ng/ml EGF) [µM]	IC50 ([4]; Table 5, 72 h) [µM]	IC50 ([5]; Table 5, 10 ng/ml mIL3, 72 h) [µM]	IC50 ([3]; Table 6, 10 ng/ml EGF) [µM]	IC50 ([4]; Table 6, 72 h) [µM]	IC50 [6] [µM]	IC50 ([5]; Table 6, 10 ng/ml mIL3, 72 h) [µM]	IC50 ([1]; Table 6) [µM]	IC50 ([2]; Table 6, 72 h) [µM]
COc1cc(N2CCC3(CCN(CCCC#Cc4cccc5c4CN(C4CCC(=O)NC4=O)C5=O)CC3)CC2)ccc1Nc1ncc(Cl)c(Nc2ccccc2P(C)(C)=O)n1 (centres unmarked) [Example C-1, reference compound]	2.82	0.028	0.38	0.199	0.376						
COc1cc(N2CCC(N3CCN(CC#Cc4cccc5c4CN(C4CCC(=O)NC4=O)C5=O)CC3)CC2)ccc1Nc1ncc(Cl)c(Nc2ccccc2P(C)(C)=O)n1 (centres unmarked) [Example C-3, reference compound]	1.21	0.0437	0.587	0.129	0.475						
COc1cc(N2CCC(N3CCN(CCCc4cccc5c4CN(C4CCC(=O)NC4=O)C5=O)CC3)CC2)ccc1Nc1ncc(Cl)c(Nc2ccccc2P(C)(C)=O)n1 (centres unmarked) [Example C-4, reference compound]		0.0417		0.0707	0.143						
COc1cc(N2CCC(N3CCN(CCCCCc4ccc5c(c4)CN(C4CCC(=O)NC4=O)C5=O)CC3)CC2)ccc1Nc1ncc(Cl)c(Nc2ccccc2P(C)(C)=O)n1 (centres unmarked) [Example C-5, reference compound]	1.23	0.0225	1.63	0.103	0.57						
COc1cc(N2CCC(N3CCC4(CCC(Oc5cccc6c5CN(C5CCC(=O)NC5=O)C6=O)CC4)C3)CC2)ccc1Nc1ncc(Cl)c(Nc2ccccc2P(C)(C)=O)n1 (centres unmarked) [Example C-6, reference compound]	0.342	0.0078	0.0792	0.0336	0.093						
COc1cc(N2CCC(N3CCN(CCC#Cc4cccc5c4CN(C4CCC(=O)NC4=O)C5=O)CC3)CC2)c(C)cc1Nc1ncc(Cl)c(Nc2ccccc2P(C)(C)=O)n1 (centres unmarked) [Example E3]		0.0143	0.287	0.0466	0.521						
COc1cc(N2CCC(N3CCN(CCC#Cc4cccc5c4CN(C4CCC(=O)NC4=O)C5=O)CC3)CC2)c(C)cc1Nc1ncc(Br)c(Nc2ccccc2P(C)(C)=O)n1 (centres unmarked) [Example E7]						0.134	0.0427	0.0149	0.271		
CCc1cc(Nc2ncc(Cl)c(Nc3ccccc3P(C)(C)=O)n2)ccc1N1CCC(N2CCN(CCC#Cc3cccc4c3CN(C3CCC(=O)NC3=O)C4=O)CC2)CC1 (centres unmarked) [Example E9]	0.393	0.0056	0.0284	0.0112	0.0207						
COc1cc(N2CCC(N3CCN(CCC#Cc4cccc5c4CN(C4CCC(=O)NC4=O)C5=O)CC3)CC2)c(Cl)cc1Nc1ncc(Cl)c(Nc2ccccc2P(C)(C)=O)n1 (centres unmarked) [Example E10]	1.21	0.0155	0.101	0.0284	0.0549						
COc1cc(N2CCC3(CCN(CCCC#Cc4cccc5c4CN(C4CCC(=O)NC4=O)C5=O)CC3)CC2)c(Cl)cc1Nc1ncc(Cl)c(Nc2ccccc2P(C)(C)=O)n1 (centres unmarked) [Example E11]	> 4	0.0171	0.236	0.0613	0.147						
CN(CCCC#Cc1cccc2c1CN(C1CCC(=O)NC1=O)C2=O)C1CC2(CCN(c3ccc(Nc4ncc(Cl)c(Nc5ccccc5P(C)(C)=O)n4)cc3Cl)CC2)C1 (centres unmarked) [Example E14]	0.377	0.0078	0.069	0.0552	0.0842						
CCc1cc(Nc2ncc(Cl)c(Nc3ccccc3P(C)(C)=O)n2)c(OC)cc1N1CCC2(CCN(CCCC#Cc3ccc4c(c3)CN(C3CCC(=O)NC3=O)C4=O)CC2)CC1 (centres unmarked) [Example E16]	> 4	0.0556	> 4	0.348	> 4						
CP(C)(=O)c1ccccc1Nc1nc(Nc2ccc(N3CCC(N4CCN(CCC#Cc5cccc6c5CN(C5CCC(=O)NC5=O)C6=O)CC4)CC3)c(Cl)c2)ncc1Cl (centres unmarked) [Example E17]	0.283	0.0037	0.0251	0.0155	0.0234						
CP(C)(=O)c1ccccc1Nc1nc(Nc2ccc(N3CCC4(CCN(CCCC#Cc5cccc6c5CN(C5CCC(=O)NC5=O)C6=O)CC4)CC3)c(Cl)c2)ncc1Cl (centres unmarked) [Example E18]	2.18	0.0309	0.724	0.266	0.786						
CCc1cc(Nc2ncc(Cl)c(Nc3ccccc3P(C)(C)=O)n2)c(OC)cc1N1CCC(N2CCN(CCCCCc3cc4c(cc3F)C(=O)N(C3CCC(=O)NC3=O)C4)CC2)CC1 (centres unmarked) [Example E19]	1.07	0.0089	> 4	0.0611	> 4						
CCc1cc(Nc2ncc(Cl)c(Nc3ccccc3P(C)(C)=O)n2)c(OC)cc1N1CCC(N2CCC3(CCC(Oc4cccc5c4CN(C4CCC(=O)NC4=O)C5=O)CC3)C2)CC1 (centres unmarked) [Example E21]	1.01	0.0019	0.636	0.0168	0.41						
CCc1cc(Nc2ncc(Br)c(Nc3ccc4c(c3P(C)(C)=O)OCCO4)n2)c(OC)cc1N1CCC(N2CCN(CCC#Cc3cccc4c3CN(C3CCC(=O)NC3=O)C4=O)CC2)CC1 (centres unmarked) [Example E22]						0.275	0.0341	0.0041	0.385	1.05	
CCc1cc(Nc2ncc(Cl)c(Nc3ccccc3P(C)(C)=O)n2)c(OC)cc1N1CCC2(CCN(CCCCC#Cc3cccc4c3CN(C3CCC(=O)NC3=O)C4=O)CC2)CC1 (centres unmarked) [Example E23]	> 4	0.0094	> 4	0.105	> 4						
CCc1cc(Nc2ncc(Cl)c(Nc3ccccc3P(C)(C)=O)n2)c(OC)cc1N1CCC(N2CCN(CCC#Cc3ccc4c(c3)CN(C3CCC(=O)NC3=O)C4=O)CC2)CC1 (centres unmarked) [Example E24]	1.46	0.0354	1.55	0.0706	1.26						
CCc1cc(Nc2ncc(Cl)c(Nc3ccccc3P(C)(C)=O)n2)c(OC)cc1N1CCC(N2CCN(CC#Cc3cccc4c3CN(C3CCC(=O)NC3=O)C4=O)CC2)CC1 (centres unmarked) [Example E25]	1.26	0.0137	1.37	0.0572	1.21						
CCc1cc(Nc2ncc(Cl)c(Nc3ccccc3P(C)(C)=O)n2)c(OC)cc1N1CCC(N2CCN(CCCc3cccc4c3CN(C3CCC(=O)NC3=O)C4=O)CC2)CC1 (centres unmarked) [Example E26]	1.09	0.008	0.517	0.0535	0.546						
COc1cc(N2CCC(N3CCC4(CCC(Oc5cccc6c5CN(C5CCC(=O)NC5=O)C6=O)CC4)C3)CC2)c(C2CC2)cc1Nc1ncc(Cl)c(Nc2ccccc2P(C)(C)=O)n1 (centres unmarked) [Example E27]	1.19	0.0033	0.937	0.0298	0.375						
CCc1cc(Nc2ncc(Cl)c(Nc3ccccc3P(C)(C)=O)n2)c(OC)cc1N1CCC(N2CCC3(CCC(=Cc4cccc5c4CN(C4CCC(=O)NC4=O)C5=O)CC3)C2)CC1 (centres unmarked) [Example E40]						0.26	0.0175	0.0049	0.131	1.21	
COc1cc(N2CCC(N3CCN(CCC#Cc4cccc5c4CN(C4CCC(=O)NC4=O)C5=O)CC3)CC2)c(C)cc1Nc1ncc(Br)c(Nc2ccc3c(c2P(C)(C)=O)OCCO3)n1 (centres unmarked) [Example E43]						0.33	0.0158	0.0066	0.122	1.06	
CCc1cc(Nc2ncc(Cl)c(Nc3ccccc3P(C)(C)=O)n2)c(OC)cc1N1CCC(N2CCC3(CCC(Cc4cccc5c4CN(C4CCC(=O)NC4=O)C5=O)CC3)C2)CC1 (centres unmarked) [Example E45]						0.585	0.0212	0.0085	0.221	1.24	
COc1cc(N2CCC(N3CCN(CCC#Cc4cccc5c4CN(C4CCC(=O)NC4=O)C5=O)CC3)CC2)ncc1Nc1ncc(Cl)c(Nc2ccccc2P(C)(C)=O)n1 (centres unmarked) [Example E71]						1.55	0.0623	0.0544	0.719	> 4	
[2H]C([2H])([2H])C([2H])([2H])c1cc(Nc2ncc(Cl)c(Nc3ccccc3P(C)(C)=O)n2)c(OC)cc1N1CCC(N2CCN(CCOc3ccc4c(c3)CN(C3CCC(=O)NC3=O)C4=O)CC2)CC1 (centres unmarked) [Example E221]						1.75	0.0225	0.0064		> 4	0.0121
